Assay type in all cases: cell-based
In one assay the test system is mouse EP neurospheres. Put plainly: 72 h dose response, CellTiter-Glo, mouse EP neurospheres. Conditions: 72 hr treatment, 384-well; for EC50: read-out: EP EC50. The protocol:
(§1) In the Discovery Phase, the initial studies included the screen of a library of 9 compounds against epigenetic regulators at a single concentration and a dose-response on G3 MB, EP, and CPC tumor cells, as well as HEPG2 and BJ (Fig. 1). The library and dose response studies are described in the Supplementary Material.
(§2) Briefly, cells (see Supplementary Table S2 for cell identity) were plated in 384-well plates (Corning) in 30 µL of supplemented neurobasal medium by using an automated plate filler (Wellmate, Matrix). After 24 hr, 28 nL of compound was transferred via pin tool, resulting in a final drug concentration of approximately 4 nM to 10 µM. After 72 hr of treatment, CellTiter-Glo reagent (Promega) was added, and the luminescence signal was measured using an automated Envision plate reader (Perkin-Elmer). Luminescence data were normalized by log10-transformation prior to calculating the percentage of inhibition using the following equation: 100 × (negative control mean − compound value)/(negative control mean − positive control mean). Our negative control represents cells treated with 0.1% DMSO with 0% inhibition. Cells treated with 35 µM cycloheximide (G3 MB tumor spheres) or 10 µM panobinostat (EP and CPC cells) were used as positive controls with 100% inhibition. The response of cells to the compounds were normalized to that of the positive controls present in each plate screened, shown in the Y axis of the dose-response curve. […] Unless otherwise reported, the y-axis for each dose response curve in the figures was independently normalized to the range from 0 to 1 and therefore reported as ‘relative growth inhibition’. High through put assay data were analyzed by using our in-house Robust Interpretation of Screening Experiments (RISE) application that was written in Pipeline Pilot (Accelrys, v. 8.5) and R (R Development Core Team).
In general terms: ATP-based viability assays read luminescence as a measure of living cells.

The test system of assay [1] is Mouse G3 MB Myc1 neurospheres. Kind of assay: 72 h dose response, CellTiter-Glo, mouse G3 MB neurospheres. Conditions: 72 hr treatment, 384-well; for EC50: read-out: G3-MB EC50. The protocol: as §1, §2
Assay [2] concerns mouse CPC neurospheres (CPC300). Kind of assay: 72 h dose response, CellTiter-Glo, mouse CPC neurospheres. Conditions: 72 hr treatment, 384-well; for EC50: read-out: CPC300 EC50. The procedure:
as §1, §2

Molecules are shown by their SMILES. Like-named read-outs stand apart in the source and are kept apart here. A value given as a limit tells only on which side of the number the result lay.

The values below come from article PMC4718940, “Preclinical studies of 5-fluoro-2′-deoxycytidine and tetrahydrouridine in pediatric brain tumors” (Journal of Neuro-Oncology, 2015).

In general, EC50 refers to the concentration needed to bring the measured effect to its halfway point.

Regarding `Nc1nccc2c1ncn2C1C=C(CO)C(O)C1O` (stereo not shown) [3-Deazaneplanocin A], the EC50 in the assay with mouse EP neurospheres (Mus musculus) came to 110 nM; in assay [1] (Mus musculus), 360 nM; in assay [2] (Mus musculus) it was 310 nM.
Regarding `Nc1ncn([C@@H]2O[C@H](CO)[C@@H](O)[C@H]2O)c(=O)n1` [5-Azacytidine], the EC50 in the assay with mouse EP neurospheres (Mus musculus) came out at 5300 nM; in assay [2] (Mus musculus) it was 1080 nM. In addition, in assay [1], the “G3-MB EC50” value was “Inactive”.
Regarding `Nc1ncn([C@H]2C[C@H](O)[C@@H](CO)O2)c(=O)n1` [Decitabine], the EC50 in the assay with mouse EP neurospheres (Mus musculus) was determined as 500 nM; in assay [1] (Mus musculus), 960 nM; in assay [2] (Mus musculus), 6700 nM.
For the compound `CCNC(=O)C[C@@H]1N=C(c2ccc(Cl)cc2)c2cc(OC)ccc2-n2c(C)nnc21` [I-BET], the EC50 is 4100 nM in the assay with mouse EP neurospheres, 900 nM in assay [1] and over 5500 nM in assay [2].
`Cc1sc2c(c1C)C(c1ccc(Cl)cc1)=N[C@@H](CC(=O)OC(C)(C)C)c1nnc(C)n1-2` [JQ1]: the figures for the EC50 (with mouse EP neurospheres; in assay [1]; in assay [2]) were 1700 nM, 700 nM and over 5600 nM, respectively.
Take `O=C(CCCCCCC(=O)Nc1ccccc1)NO` [SAHA (Vorinostat), Vorinostat]: the “G3-MB EC50” value in assay [1] is “Inactive”.
Consider `CC(/C=C/C(=O)NO)=C\[C@@H](C)C(=O)c1ccc(N(C)C)cc1` [Trichostatin A], for which the EC50 in the assay on mouse EP neurospheres was found to be 400 nM; in assay [1] it was 100 nM; in assay [2], 2100 nM.
Take `O=c1ncccn1[C@@H]1O[C@H](CO)[C@@H](O)[C@H]1O` [Zebularin, Zebularine]: in the assay on mouse EP neurospheres, the “EP EC50” value is “Inactive”. The “G3-MB EC50” value in assay [1] is reported as “Inactive”. Further, the “CPC300 EC50” value in assay [2] is listed as “Inactive”.
